In article PMC3556473, “Absorption, metabolism and excretion of [^14C]pomalidomide in humans following oral administration” (Cancer Chemotherapy and Pharmacology, 2012):
Values joined by “and” are separate entries in the source; they are usually repeats but may differ in a detail not shown here. Equal values may be shown once.

Tests used:
[1] = Plasma pharmacokinetics of pomalidomide and circulating metabolites by radiochromatography (metabolite profiling); format: in vivo, human; set-up: AUC0–24 / AUC0−∞: concentration or dose not given beside the values; conditions: for Plasma (% AUC relative to TRA): AUC0–24 (unchanged drug or metabolite)/AUC0–24 (TRA) * 100 %; for Tmax / half-life: human, oral, 2 mg; for Tmax: median and range; for half-life: male, read-out: t ½ (converted); for AUC/AUCTRA: plasma exposure relative to total radioactivity
Procedure: Individual plasma samples collected from all subjects at 1, 2.5, 4, 6, 10, 12 and 24 h post-dose were analyzed for metabolite profiling. Samples were extracted with acetonitrile, the supernatant was removed, and the pellet was washed with 0.1 % formic acid in water and extracted again with acetonitrile. The combined supernatants were adjusted to 15 or 25 mL by adding acetonitrile then evaporated to dryness under a stream of nitrogen. The residues were re-suspended in 0.1 % formic acid in water, assayed for extraction recovery and analyzed for metabolite profiling. A control plasma sample spiked with [^14C]pomalidomide was extracted in a similar manner to determine the extraction efficiency and stability of [^14C]pomalidomide.
HPLC analysis for metabolite profiling (HPLC Method 1) was performed using a Waters 2695 Alliance Separation Module (Waters Corp., Milford, MA) with the autosampler set to 4 °C. [^14C]Pomalidomide and metabolites were separated using an ACE C18 column (150 × 4.6 mm, 3 μm; Advanced Chromatography Technologies, Aberdeen, Scotland) equipped with an ACE C18 guard column (10 × 3 mm, 3 μm). The mobile phases used were 25 mM ammonium acetate in water: pH 5.5 with formic acid (mobile phase A) and methanol (mobile phase B). The column temperature was 30 °C, and the flow rate was 0.7 mL/min. The linear gradient was delivered as follows: 0–2 min 100 % A; 2–38 min to 64 % A; 38–44 min to 0 % A; 44–48 min hold at 0 % A; return to initial conditions over 2 min.
Radioactivity profiles for plasma and excreta were determined by collecting the column eluate into 96-well Deepwell LumaPlates™ at a rate of 0.25 min/fraction. The plates were dried and the radioactivity in each well determined using a PerkinElmer TopCount® NXT™ Microplate Scintillation Counter. HPLC radiochromatograms were reconstructed using LC-ARC data handling software.
For pomalidomide and metabolite concentrations in plasma based on metabolite profiling data, pharmacokinetic data were generated by non-compartmental analysis of plasma versus time profiles using WinNonlin (version 4.1, Enterprise Edition).

T cell IL-2 production = test: Enhancement of primary human T cell IL-2 production (anti-CD3 stimulated, 2-day culture); format: cell-based; conditions: 48 h, anti-CD3 stimulated primary human T cells
Procedure: Metabolites and hydrolysis products of pomalidomide were tested for pharmacological activity in the following three assay systems: (1) inhibition of MM cell proliferation, (2) enhancement of primary human T cell IL-2 production and (3) inhibition of TNF-α production by lipopolysaccharide (LPS)-stimulated human peripheral blood mononuclear cells (PBMC). For all three assay types, compounds were dissolved in 100 % dimethyl sulfoxide (DMSO) and diluted into complete cell culture medium, consisting of Roswell Park Memorial Institute (RPMI)-1640 plus penicillin, streptomycin and L-glutamine (Mediatech, Manassas, VA). The MM cell proliferation cell culture medium contained 10 % fetal bovine serum, while the primary human cell cultures contained 10 % human AB serum (Invitrogen, Brown Deer, WI). The final DMSO concentration in the cell culture media was 0.25 %.
The human MM cell line OPM-2 was obtained from DSMZ (Braunschweig, Germany), and human MM cell lines U266 B1 and NCI-H929 were obtained from ATCC (Manassas, VA). Inhibition of MM cell proliferation was assessed by the [^3H]-thymidine incorporation assay in a 3-day culture in the presence of compounds in complete medium, as previously described. Primary human T cells were isolated from PBMC by negative selection using the RosetteSep T Cell Enrichment Cocktail (STEMCELL Technologies, Tukwila, WA) according to the manufacturer’s procedures. Costimulation of T cell IL-2 production was measured in a 2-day culture of primary human T cells isolated from healthy donors stimulated with anti-CD3 antibody in the presence of compounds, as previously described. Inhibition of TNF-α production by LPS-stimulated human PBMC was measured in a 1-day culture in the presence of compound, as previously described.

CYP2D6 = target: T1, CYP2D6 (Homo sapiens, UniProt P10635); test: In vitro CYP phenotyping (M17 formation from [14C]pomalidomide); format: in vitro ADME
T1 construct: purchased Cypex Ltd (Scotland, UK)
T1 sequence (P10635 whole entry): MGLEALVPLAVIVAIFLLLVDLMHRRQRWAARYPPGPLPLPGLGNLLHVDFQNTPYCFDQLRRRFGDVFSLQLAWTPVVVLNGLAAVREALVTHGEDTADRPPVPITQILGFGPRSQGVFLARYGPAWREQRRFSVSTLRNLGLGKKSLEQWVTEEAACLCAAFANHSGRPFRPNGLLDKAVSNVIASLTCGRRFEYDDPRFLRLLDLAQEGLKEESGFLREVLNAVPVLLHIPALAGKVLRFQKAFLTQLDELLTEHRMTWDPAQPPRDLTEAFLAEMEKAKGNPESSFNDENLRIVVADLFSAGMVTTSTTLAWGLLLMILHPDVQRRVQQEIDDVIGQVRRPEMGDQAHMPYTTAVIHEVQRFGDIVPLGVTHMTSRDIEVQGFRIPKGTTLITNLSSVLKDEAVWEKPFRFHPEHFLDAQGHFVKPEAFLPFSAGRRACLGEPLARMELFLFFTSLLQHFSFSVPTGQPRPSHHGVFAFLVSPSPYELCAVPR
Procedure: (§1) The CYP enzymes responsible for the formation of the hydroxy pomalidomide metabolites were investigated using 10 recombinant human CYP (rCYP) enzymes (CYP1A2, CYP2A6, CYP2B6, CYP2C8, CYP2C9, CYP2C19, CYP2D6, CYP2E1, CYP3A4 and CYP3A5) at 100 pmol/mL. Incubations were prepared using [^14C]pomalidomide (1 μM) in 0.1 M potassium phosphate buffer (pH 7.4) with 4 mM MgCl2, pre-incubated for 5 min at 37 °C. Reactions were initiated by the addition of 1 mM NADPH and continued for 30 or 60 min. Reactions were quenched with two volumes of ice-cold 0.1 % formic acid in acetonitrile containing [^13C5]pomalidomide as internal standard. The samples were mixed and centrifuged, and a subsample of the supernatant evaporated to dryness. The resulting pellet was reconstituted in 0.1 % formic acid in water and acetonitrile (4:1, v/v) and analyzed using HPLC with radiochromatography and/or LC–MS/MS. The rate of formation of the notable human metabolite M17 was calculated and scaled to human in vivo situation using relative abundance method.

CYP3A4 = target: T2, CYP3A4 (Homo sapiens, UniProt P08684); test: as above; format: in vitro ADME
T2 construct: purchased Cypex Ltd (Scotland, UK)
T2 sequence (P08684 whole entry): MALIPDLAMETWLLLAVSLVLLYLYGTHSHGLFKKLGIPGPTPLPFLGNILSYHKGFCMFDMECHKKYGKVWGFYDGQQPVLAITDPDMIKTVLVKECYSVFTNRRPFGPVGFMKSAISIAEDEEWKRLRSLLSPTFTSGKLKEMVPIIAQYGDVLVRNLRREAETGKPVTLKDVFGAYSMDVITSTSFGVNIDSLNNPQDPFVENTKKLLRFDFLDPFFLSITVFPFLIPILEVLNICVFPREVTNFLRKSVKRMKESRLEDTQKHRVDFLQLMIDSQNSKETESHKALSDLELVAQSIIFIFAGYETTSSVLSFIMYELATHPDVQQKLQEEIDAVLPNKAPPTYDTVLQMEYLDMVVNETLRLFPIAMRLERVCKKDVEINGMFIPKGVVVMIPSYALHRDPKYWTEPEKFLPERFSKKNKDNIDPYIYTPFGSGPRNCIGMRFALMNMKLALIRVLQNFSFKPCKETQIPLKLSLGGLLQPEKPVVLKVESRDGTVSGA
Procedure: as §1

CYP2C19 = target: T3, CYP2C19 (Homo sapiens, UniProt P33261); test: as above; format: in vitro ADME
T3 construct: purchased Cypex Ltd (Scotland, UK)
T3 sequence (P33261 whole entry): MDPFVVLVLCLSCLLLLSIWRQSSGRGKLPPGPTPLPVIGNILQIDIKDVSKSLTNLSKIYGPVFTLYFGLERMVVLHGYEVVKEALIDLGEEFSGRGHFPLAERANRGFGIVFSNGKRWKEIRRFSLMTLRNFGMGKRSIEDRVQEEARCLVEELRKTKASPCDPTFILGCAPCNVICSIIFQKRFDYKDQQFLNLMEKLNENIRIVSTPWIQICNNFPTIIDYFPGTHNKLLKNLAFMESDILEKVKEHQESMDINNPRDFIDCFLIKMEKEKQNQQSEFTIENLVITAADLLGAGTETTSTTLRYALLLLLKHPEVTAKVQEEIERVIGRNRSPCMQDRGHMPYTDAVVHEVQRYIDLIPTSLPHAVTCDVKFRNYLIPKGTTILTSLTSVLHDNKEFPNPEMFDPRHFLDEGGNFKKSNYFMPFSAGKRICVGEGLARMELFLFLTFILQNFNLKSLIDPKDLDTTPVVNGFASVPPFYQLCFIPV
Procedure: as §1

[2] = plasma, plasma, radiochromatography, geometric mean (%CV)
[3] = plasma, radiochromatography, geometric mean (%CV)

| Plasma (% AUC relative to TRA) [1] | Tmax ([1]; plasma, radiochromatography) | half-life [1, 2] | AUC/AUCTRA [1] | AUC/AUCTRA ([1]; listed as pomalidomide) | AUC0–24 [1, 3] | AUC0−∞ [1, 3] | C max [1, 3] | t ½ [1, 3] | EC50 (T cell IL-2 production) | relative contribution of isozyme to the hepatic metabolism of pomalidomide (CYP2D6; CYP2D6, scaled by relative abundance in human liver) | relative contribution of isozyme to the hepatic metabolism of pomalidomide (CYP3A4; CYP3A4, scaled by relative abundance in human liver) | relative contribution of isozyme to the hepatic metabolism of pomalidomide (CYP2C19; CYP2C19, scaled by relative abundance in human liver) | rate of M17 formation (CYP2D6; rCYP2D6, [14C]pomalidomide 1 μM, 1-h incubation, based on peak area ratios, estimated) | rate of M17 formation (CYP3A4; rCYP3A4, [14C]pomalidomide 1 μM, 1-h incubation, based on peak area ratios, estimated) | rate of M17 formation (CYP2C19; rCYP2C19, [14C]pomalidomide 1 μM, 1-h incubation, based on peak area ratios, estimated) | SMILES |
| --- | --- | --- | --- | --- | --- | --- | --- | --- | --- | --- | --- | --- | --- | --- | --- | --- |
| 69.6% | 2.5 h | 564 min | 70% and 69.6% | approximately 70% | 135 (33.4) ngEq*h/mL | 165 (43.2) ngEq*h/mL | 11.0 (22.5) ngEq/mL | 9.41 (25.0) h | 22 nM | 4% | 30% | 11% | – | – | – | Nc1cccc2c1C(=O)N(C1CCC(=O)NC1=O)C2=O (racemic) [Pomalidomide, (RS)-4-amino-2-(2,6-dioxo-piperidin-3-yl)-isoindoline-1,3-dione] |
| 4.0% | 2.5 h | 660 min | 4.00% | – | 7.76 (24.8) ngEq*h/mL | 11.5 (36.9) ngEq*h/mL | 0.68 (33.3) ngEq/mL | – | > 10000 nM | – | – | – | 0.0011 pmol/min/pmol P450 | 0.0008 pmol/min/pmol P450 | 0.0024 pmol/min/pmol P450 | Nc1c(O)ccc2c1C(=O)N(C1CCC(=O)NC1=O)C2=O (stereo not drawn) [Metabolite M17, 5-hydroxy pomalidomide] |
